Assay results reported in ChEMBL document CHEMBL3044781, “Triterpenoid saponins with antifeedant activities from stem bark of Catunaregam spinosa (Rubiaceae) against Plutella xylostella (Plutellidae)” (2011).

system: Plutella xylostella; experiment: Antifeedant activity against second-instar larval stage of Plutella xylostella (diamondback moth) in cabbage leaf disks assessed as consumed leaf area treated for 10 secs before larval infestation measured within 48 hr by non-choice leaf disc method; format: functional

Structure (SMILES)	AFC50 [µg/mL]
CC1(C)CC[C@]2(C(=O)O[C@@H]3O[C@H](CO)[C@@H](O)[C@H](O)[C@H]3O)CC[C@]3(C)C(=CC[C@@H]4[C@@]5(C)CC[C@H](O[C@@H]6O[C@H](CO)[C@@H](O)[C@H](O[C@@H]7O[C@H](CO)[C@@H](O)[C@H](O)[C@H]7O)[C@H]6O[C@@H]6OC[C@@H](O)[C@H](O)[C@H]6O)C(C)(C)[C@@H]5CC[C@]43C)[C@@H]2C1 [ARALIASAPONIN IV]	335.54
CC1(C)CC[C@]2(C(=O)O[C@@H]3O[C@H](CO)[C@@H](O)[C@H](O)[C@H]3O)CC[C@]3(C)C(=CC[C@@H]4[C@@]5(C)CC[C@H](O[C@@H]6O[C@H](CO)[C@@H](O)[C@H](O[C@@H]7O[C@H](CO)[C@@H](O)[C@H](O)[C@H]7O)[C@H]6O[C@@H]6OC[C@@H](O)[C@H](O)[C@H]6O)C(C)(C)[C@@H]5CC[C@]43C)[C@@H]2[C@@H]1O [CATUNAROSIDE]	608.42
C[C@@H]1O[C@@H](O[C@H]2[C@H](O[C@H]3CC[C@]4(C)[C@H]5CC=C6[C@@H]7[C@H](O)C(C)(C)CC[C@]7(C(=O)O[C@@H]7O[C@H](CO)[C@@H](O)[C@H](O)[C@H]7O)CC[C@@]6(C)[C@]5(C)CC[C@H]4C3(C)C)O[C@H](CO)[C@@H](O)[C@@H]2O[C@@H]2O[C@H](CO)[C@@H](O)[C@H](O)[C@H]2O)[C@H](O)[C@H](O)[C@H]1O [CATUNAROSIDE C]	946.13
CC1(C)CC[C@]2(C(=O)O)CC[C@]3(C)C(=CC[C@@H]4[C@@]5(C)CC[C@H](O[C@@H]6O[C@H](CO)[C@@H](O)[C@H](O[C@@H]7O[C@H](CO)[C@@H](O)[C@H](O)[C@H]7O)[C@H]6O[C@@H]6OC[C@@H](O)[C@H](O)[C@H]6O)C(C)(C)[C@@H]5CC[C@]43C)[C@@H]2[C@@H]1O [CATUNAROSIDE A]	243.23
C[C@@H]1O[C@@H](O[C@H]2[C@H](O[C@H]3CC[C@]4(C)[C@H]5CC=C6[C@@H]7CC(C)(C)CC[C@]7(C(=O)O)CC[C@@]6(C)[C@]5(C)CC[C@H]4C3(C)C)O[C@H](CO)[C@@H](O)[C@@H]2O[C@@H]2O[C@H](CO)[C@@H](O)[C@H](O)[C@H]2O)[C@H](O)[C@H](O)[C@H]1O [CATUNAROSIDE B]	369.63
CC1(C)CC[C@]2(C(=O)O[C@@H]3O[C@H](CO)[C@@H](O)[C@H](O)[C@H]3O)CC[C@]3(C)C(=CC[C@@H]4[C@@]5(C)CC[C@H](O[C@@H]6O[C@H](CO)[C@@H](O)[C@H](O[C@@H]7O[C@H](CO)[C@@H](O)[C@H](O)[C@H]7O)[C@H]6O[C@@H]6O[C@H](CO)[C@@H](O)[C@H](O)[C@H]6O)C(C)(C)[C@@H]5CC[C@]43C)[C@@H]2C1 [ARALIA-SAPONIN V]	5467.82
CC1(C)CC[C@]2(C(=O)O)CC[C@]3(C)C(=CC[C@@H]4[C@@]5(C)CC[C@H](O[C@@H]6O[C@H](CO)[C@@H](O)[C@H](O[C@@H]7O[C@H](CO)[C@@H](O)[C@H](O)[C@H]7O)[C@H]6O[C@@H]6OC[C@@H](O)[C@H](O)[C@H]6O)C(C)(C)[C@@H]5CC[C@]43C)[C@@H]2C1 [SWARTZIATRIOSIDE]	106.73
